Results: patent publication US20080175794A1, “Substituted Pyridazinyl- and Pyrimidinyl-Quinolin-4-Ylamine Analogues” (NEUROGEN CORPORATION, priority 2005, published 2008)

Target: T1, human capsaicin receptor (Homo sapiens, UniProt Q8NER1)
T1 construct: expressed in transfected cells
Test: Calcium mobilization assay, determination of antagonist activity (Example 6)
Assay type: cell-based
Settings: Table III; assay provided in Example 6; cells expressing human capsaicin receptor, capsaicin at EC50
Experimental: A cDNA encoding full length human capsaicin receptor (SEQ ID NO:1, 2 or 3 of U.S. Pat. No. 6,482,611) is subcloned in the plasmid pBK-CMV (Stratagene, La Jolla, Calif.) for recombinant expression in mammalian cells.
Human embryonic kidney (HEK293) cells are transfected with the pBK-CMV expression construct encoding the full length human capsaicin receptor using standard methods. The transfected cells are selected over two weeks in media containing G418 (400 μg/ml) to obtain a pool of stably transfected cells. Independent clones are isolated from this pool by limiting dilution to obtain clonal stable cell lines for use in subsequent experiments.
Cells transfected with expression plasmids (as described in Example 4) and thereby expressing human capsaicin receptor are seeded and grown to 70-90% confluency in FALCON black-walled, clear-bottomed 96-well plates (#3904, BECTON-DICKINSON, Franklin Lakes, N.J.). The culture medium is emptied from the 96 well plates and FLUO-3 AM calcium sensitive dye (Molecular Probes, Eugene, Oreg.) is added to each well (dye solution: 1 mg FLUO-3 AM, 440 μL DMSO and 440 μl 20% pluronic acid in DMSO, diluted 1:250 in Krebs-Ringer HEPES (KRH) buffer (25 mM HEPES, […], 0.96 mM NaH2PO4, 1 mM MgSO4, 2 mM CaCl2, 5 mM glucose, 1 mM probenecid, pH 7.4), 50 μl diluted solution per well). Plates are covered with aluminum foil and incubated at 37° C. for 1-2 hours in an environment containing 5% CO2. After the incubation, the dye is emptied from the plates, and the cells are washed once with KRH buffer, and resuspended in KRH buffer.
To measure the ability of a test compound to agonize or antagonize a calcium mobilization response in cells expressing capsaicin receptors to capsaicin or other vanilloid agonist, the EC50 of the agonist capsaicin is first determined. An additional 20 μl of KRH buffer and 1 μl DMSO is added to each well of cells, prepared as described above. 100 μl capsaicin in KRH buffer is automatically transferred by the FLIPR instrument to each well. Capsaicin-induced calcium mobilization is monitored using either FLUOROSKAN ASCENT (Labsystems; Franklin, Mass.) or FLIPR (fluorometric imaging plate reader system; Molecular Devices, Sunnyvale, Calif.) instruments. Data obtained between 30 and 60 seconds after agonist application are used to generate an 8-point concentration response curve, with final capsaicin concentrations of 1 nM to 3 μM. KALEIDAGRAPH software (Synergy Software, Reading, Pa.) is used to fit the data to the equation: […]
Test compounds are dissolved in DMSO, diluted in 20 μl KRH buffer so that the final concentration of test compounds in the assay well is between […] and 5 μM, and added to cells prepared as described above. The 96 well plates containing prepared cells and test compounds are incubated in the dark at room temperature for 0.5 to 6 hours. It is important that the incubation not continue beyond 6 hours. Just prior to determining the fluorescence response, 100 μl capsaicin in KRH buffer at twice the EC50 concentration determined as described above is automatically added by the FLIPR instrument to each well of the 96 well plate for a final sample volume of 200 μl and a final capsaicin concentration equal to the EC50. The final concentration of test compounds in the assay wells is between 1 μM and 5 μM. […] The concentration of antagonist required to provide a 50% decrease, relative to the response observed in the presence of capsaicin and without antagonist, is the IC50 for the antagonist, and is preferably below 1 micromolar, 100 nanomolar, 10 nanomolar or 1 nanomolar.

T1 sequence (Q8NER1 whole entry): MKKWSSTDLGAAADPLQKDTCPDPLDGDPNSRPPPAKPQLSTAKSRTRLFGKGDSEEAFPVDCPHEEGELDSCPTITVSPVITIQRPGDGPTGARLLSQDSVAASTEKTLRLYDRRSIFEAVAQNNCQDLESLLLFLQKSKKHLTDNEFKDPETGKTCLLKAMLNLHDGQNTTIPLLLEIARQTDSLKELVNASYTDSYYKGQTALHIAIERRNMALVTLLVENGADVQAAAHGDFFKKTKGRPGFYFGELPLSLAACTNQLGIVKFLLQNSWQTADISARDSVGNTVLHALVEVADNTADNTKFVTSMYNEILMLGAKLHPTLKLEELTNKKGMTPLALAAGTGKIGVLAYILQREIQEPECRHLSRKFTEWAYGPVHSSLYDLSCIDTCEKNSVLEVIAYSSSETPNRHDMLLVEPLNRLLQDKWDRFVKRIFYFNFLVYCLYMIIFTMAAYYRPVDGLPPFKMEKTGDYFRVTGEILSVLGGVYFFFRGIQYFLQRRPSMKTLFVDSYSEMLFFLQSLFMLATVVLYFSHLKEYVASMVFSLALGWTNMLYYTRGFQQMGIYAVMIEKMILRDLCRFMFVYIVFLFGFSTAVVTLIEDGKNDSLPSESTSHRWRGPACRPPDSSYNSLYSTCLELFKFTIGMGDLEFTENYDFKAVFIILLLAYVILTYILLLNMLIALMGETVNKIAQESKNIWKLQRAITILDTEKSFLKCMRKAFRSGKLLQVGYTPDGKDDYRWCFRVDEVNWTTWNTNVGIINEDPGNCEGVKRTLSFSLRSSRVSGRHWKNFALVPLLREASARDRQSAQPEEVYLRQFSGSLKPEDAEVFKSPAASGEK

IC50, < 1000 nM:
CN1CCCC1CCOc1cc(C(F)(F)F)c(-c2cnc3c(Nc4ccc(C(F)(F)F)cn4)ccnc3n2)nn1 (centres unmarked) [Compound 65, 3-{6-[2-(1-methylpyrrolidin-2-yl)ethoxy]-4-(trifluoromethyl)pyridazin-3-yl}-N-[5-(trifluoromethyl)pyridin-2-yl]pyrido[2,3-b]pyrazin-8-amine]
CCN(CCO)c1cc(C(F)(F)F)c(-c2cnc3c(Nc4ccc(C(F)(F)F)cn4)ccnc3n2)nn1 [Compound 194]
CCCNc1cc(C(F)(F)F)c(-c2cnc3c(Nc4ccc(C(F)(F)F)cn4)ccnc3n2)nn1 [Compound 102, 3-[6-(propylamino)-4-(trifluoromethyl)pyridazin-3-yl]-N-[5-(trifluoromethyl)pyridin-2-yl]pyrido[2,3-b]pyrazin-8-amine]
FC(F)(F)c1ccnnc1-c1cnc2c(Nc3cnc4ccccc4n3)ccnc2n1 [Compound 45, N-2-quinoxalinyl-3-[4-(trifluoromethyl)-3-pyridazinyl]pyrido[2,3-b]pyrazin-8-amine]
COCCN(C)c1cc(C(F)(F)F)c(-c2cnc3c(Nc4ccc(C(F)(F)F)cn4)ccnc3n2)nn1 [Compound 181, 3-{6-[(2-methoxyethyl)(methyl)amino]-4-(trifluoromethyl)pyridazin-3-yl}-N-[5-(trifluoromethyl)pyridin-2-yl]pyrido[2,3-b]pyrazin-8-amine]
CCC(CO)Nc1cc(C(F)(F)F)c(-c2cnc3c(Nc4ccc(C(F)(F)F)cn4)ccnc3n2)nn1 (centres unmarked) [Compound 118, 2-{[5-(trifluoromethyl)-6-(8-{[5-(trifluoromethyl)pyridin-2-yl]amino}pyrido[2,3-b]pyrazin-3-yl)pyridazin-3-yl]amino}butan-1-ol]
CCN(C)c1cc(C(F)(F)F)c(-c2cnc3c(Nc4ccc(C(F)(F)F)cn4)ccnc3n2)nn1 [Compound 180, 3-{6-[ethyl(methyl)amino]-4-(trifluoromethyl)pyridazin-3-yl}-N-[5-(trifluoromethyl)pyridin-2-yl]pyrido[2,3-b]pyrazin-8-amine]
CN(CC(=O)O)c1cc(C(F)(F)F)c(-c2cnc3c(Nc4ccc(C(F)(F)F)cn4)ccnc3n2)nn1 [Compound 56, N-methyl-N-[5-(trifluoromethyl)-6-(8-{[5-(trifluoromethyl)pyridin-2-yl]amino}pyrido[2,3-b]pyrazin-3-yl)pyridazin-3-yl]glycine]
CN(CCOCCO)c1cc(C(F)(F)F)c(-c2cnc3c(Nc4ccc(C(F)(F)F)cn4)ccnc3n2)nn1 [Compound 67, 2-(2-{methyl[5-(trifluoromethyl)-6-(8-{[5-(trifluoromethyl)pyridin-2-yl]amino}pyrido[2,3-b]pyrazin-3-yl)pyridazin-3-yl]amino}ethoxy)ethanol]
CN(C)CCOc1cc(C(F)(F)F)c(-c2cnc3c(Nc4ccc(C(F)(F)F)cn4)ccnc3n2)nn1 [Compound 62, 3-{6-[2-(dimethylamino)ethoxy]-4-(trifluoromethyl)pyridazin-3-yl}-N-[5-(trifluoromethyl)pyridin-2-yl]pyrido[2,3-b]pyrazin-8-amine]
CC(C)Nc1nc(Nc2ccnc3nc(-c4nnccc4C(F)(F)F)cnc23)ccc1C(F)(F)F [Compound 48, N2-isopropyl-3-(trifluoromethyl)-N-~6~-{3-[4-(trifluoromethyl)pyridazin-3-yl]pyrido[2,3-b]pyrazin-8-yl}pyridine-2,6-diamine]
NC(=O)c1cc(C(F)(F)F)c(-c2cnc3c(Nc4ccc(C(F)(F)F)cn4)ccnc3n2)nn1 [Compound 60, 5-(trifluoromethyl)-6-(8-{[5-(trifluoromethyl)pyridin-2-yl]amino}pyrido[2,3-b]pyrazin-3-yl)pyridazine-3-carboxamide]
CN(C)CCCOc1cc(C(F)(F)F)c(-c2cnc3c(Nc4ccc(C(F)(F)F)cn4)ccnc3n2)nn1 [Compound 64, 3-{6-[3-(dimethylamino)propoxy]-4-(trifluoromethyl)pyridazin-3-yl}-N-[5-(trifluoromethyl)pyridin-2-yl]pyrido[2,3-b]pyrazin-8-amine]
FC(F)(F)c1ccc(Nc2ccnc3nc(-c4nnc(NC5CCC5)cc4C(F)(F)F)cnc23)nc1 [Compound 107, 3-[6-(cyclobutylamino)-4-(trifluoromethyl)pyridazin-3-yl]-N-[5-(trifluoromethyl)pyridin-2-yl]pyrido[2,3-b]pyrazin-8-amine]
C=CCN1CCN(c2cc(C(F)(F)F)c(-c3cnc4c(Nc5ccc(C(F)(F)F)cn5)ccnc4n3)nn2)CC1 [Compound 86, 3-[6-(4-allylpiperazin-1-yl)-4-(trifluoromethyl)pyridazin-3-yl]-N-[5-(trifluoromethyl)pyridin-2-yl]pyrido[2,3-b]pyrazin-8-amine]
CCCOCCNc1cc(C(F)(F)F)c(-c2cnc3c(Nc4ccc(C(F)(F)F)cn4)ccnc3n2)nn1 [Compound 52, 3-[6-[(2-propoxyethyl)amino]-4-(trifluoromethyl)pyridazin-3-yl]-N-[5-(trifluoromethyl)pyridin-2-yl]pyrido[2,3-b]pyrazin-8-amine]
CNc1cc(C(F)(F)F)c(-c2cnc3c(Nc4ccc(C(F)(F)F)cn4)ccnc3n2)nn1 [Compound 100, 3-[6-(methylamino)-4-(trifluoromethyl)pyridazin-3-yl]-N-[5-(trifluoromethyl)pyridin-2-yl]pyrido[2,3-b]pyrazin-8-amine]
CN(CC#N)c1cc(C(F)(F)F)c(-c2cnc3c(Nc4ccc(C(F)(F)F)cn4)ccnc3n2)nn1 [Compound 124, {methyl[5-(trifluoromethyl)-6-(8-{[5-(trifluoromethyl)pyridin-2-yl]amino}pyrido-[2,3-b]pyrazin-3-yl)pyridazin-3-yl]amino}acetonitrile]
CNC(=O)CN(C)c1cc(C(F)(F)F)c(-c2cnc3c(Nc4ccc(C(F)(F)F)cn4)ccnc3n2)nn1 [Compound 58, N,N2-dimethyl-N2-[5-(trifluoromethyl)-6-(8-{[5-(trifluoromethyl)pyridin-2-yl]amino}pyrido[2,3-b]pyrazin-3-yl)pyridazin-3-yl]glycinamide]
COC1CCN(c2cc(C(F)(F)F)c(-c3cnc4c(Nc5ccc(C(F)(F)F)cn5)ccnc4n3)nn2)CC1 [Compound 188, 3-[6-(4-methoxypiperidin-1-yl)-4-(trifluoromethyl)pyridazin-3-yl]-N-[5-(trifluoromethyl)pyridin-2-yl]pyrido[2,3-b]pyrazin-8-amine]
C#CCN(C)c1cc(C(F)(F)F)c(-c2cnc3c(Nc4ccc(C(F)(F)F)cn4)ccnc3n2)nn1 [Compound 125, 3-{6-[methyl(prop-2-yn-1-yl)amino]-4-(trifluoromethyl)pyridazin-3-yl}-N-[5-(trifluoromethyl)pyridin-2-yl]pyrido[2,3-b]pyrazin-8-amine]
FC(F)(F)c1ccc(Nc2ccnc3nc(-c4nnc(N5CCOCC5)cc4C(F)(F)F)cnc23)nc1 [Compound 53, 3-[6-morpholin-4-yl-4-(trifluoromethyl)pyridazin-3-yl]-N-[5-(trifluoromethyl)pyridin-2-yl]pyrido[2,3-b]pyrazin-8-amine]

Same assay, conditions: assay provided in Example 6; cells expressing human capsaicin receptor, capsaicin at EC50

IC50, < 1000 nM:
FC(F)(F)c1ccc(Nc2ccnc3nc(-c4ncncc4C(F)(F)F)ccc23)nc1 [Compound 5, N-[5-(Trifluoromethyl)pyridin-2-yl]-7-[5-(trifluoromethyl)pyrimidin-4-yl]-1,8-naphthyridin-4-amine]
